Measurements as given in patent publication US20250353873A1, “COMPOUNDS AND METHODS FOR MODULATING APOE EXPRESSION” (Ionis Pharmaceuticals, Inc., priority 2024, published 2025).
Strand notation (5' to 3'): a small letter for the sugar, then the base; units joined by * are phosphorothioate-linked, units joined directly phosphodiester-linked; [ ] holds rarer units or linkages, { } end groups; capitals alone tell only the bases. e = 2'-O-(2-methoxyethyl) (MOE); k = constrained ethyl (cEt); [5mC] = 5-methylcytosine; d = 2'-deoxy (DNA)

Columns and labels:
[1] = system: human APOE RNA; experiment: Dose-dependent inhibition of human APOE RNA in HepG2 cells, electroporation, 50,000 cells per well, RT-PCR normalized to GAPDH (Example 4, Tables 8-10); format: cell-based; conditions: HepG2, electroporation, 16-hour treatment
Outline: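 Readout is percent APOE RNA versus untreated controls, measured by RT-PCR (primer probe set RTS3073) and normalized to human GAPDH. Modified oligonucleotides were delivered by electroporation at varying doses into HepG2 cells plated at 50,000 per well.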

[2] = system: human APOE RNA; experiment: Activity in APOE C57BL/6NTac-Apoeem7250 knock-in mice, single ICV bolus, 20 weeks (Example 13); format: in vivo; conditions: single ICV bolus 300 μg, 20 weeks post treatment, normalized to mouse Ppia
Procedure: Modified oligonucleotides described above were tested in the APOE C57BL/6NTac-Apoeem7250 knock-in mouse model described above.
APOE C57BL/6NTac-Apoeem7250 knock-in mice were divided into groups of 4 mice each. Each mouse received a single ICV bolus of 300 μg of modified oligonucleotide. A group of 2-4 mice received a single ICV bolus with PBS as a negative control.
Twenty weeks post treatment, mice were sacrificed and RNA was extracted from cortical brain tissue and spinal cord for quantitative real-time RT-PCR analysis of RNA expression of APOE using human primer probe set RTS3073 (described herein above). APOE RNA levels were normalized to mouse Ppia. Mouse Ppia was amplified using primer probe set m_cyclo24 (described herein above). Results are presented as percent human APOE RNA relative to the amount of human APOE RNA in PBS treated animals, (% control). Each experiment is identified in separate tables below.

| Substance | APOE RNA (% UTC) ([1]; 5 nM) | APOE RNA (% UTC) ([1]; 13 nM) | APOE RNA (% UTC) ([1]; 33 nM) | APOE RNA (% UTC) ([1]; 82 nM) | APOE RNA (% UTC) ([1]; 205 nM) | APOE RNA (% UTC) ([1]; 512 nM) | APOE RNA (% UTC) ([1]; 1,280 nM) | APOE RNA (% UTC) ([1]; 3,200 nM) | APOE RNA (% UTC) ([1]; 8,000 nM) | APOE RNA (% UTC) ([1]; 20,000 nM) | IC50 [1] | APOE RNA (% control) Cortex [2] | APOE RNA (% control) Spinal Cord [2] |
| --- | --- | --- | --- | --- | --- | --- | --- | --- | --- | --- | --- | --- | --- |
| 1757564: mixed MOE/cEt gapmer TTGGTGAATCTTTATTAA, sugar eeeekddddddddkeeke, linkages soossssssssssooss (eT*eTeGeG*kT*dG*dA*dA*dT*d[5mC]*dT*dT*dT*kAeTeT*kA*eA) [compound 1757564] | 91 % UTC | 86 % UTC | 92 % UTC | 93 % UTC | 82 % UTC | 72 % UTC | 62 % UTC | 39 % UTC | 22 % UTC | 33 % UTC | 2.21 µM | 95 % control | 69 % control |
| 1757556: mixed MOE/cEt gapmer TTGGTGAATCTTTATTAA, sugar eeeeeddddddddekkee, linkages soossssssssssooss (eT*eTeGeG*eT*dG*dA*dA*dT*d[5mC]*dT*dT*dT*eAkTkT*eA*eA) [compound 1757556] | 92 % UTC | 93 % UTC | 98 % UTC | 103 % UTC | 101 % UTC | 65 % UTC | 71 % UTC | 60 % UTC | 35 % UTC | 13 % UTC | 3.53 µM | 99 % control | 82 % control |
| 1757581 (eT*eTeGeGkT*dG*dA*dA*dT*d[5mC]*dT*dT*dT*dA*dT*eTeAeA*eA*e[5mC]; antisense) [Compound 1757581] | 83 % UTC | 85 % UTC | 100 % UTC | 78 % UTC | 76 % UTC | 58 % UTC | 33 % UTC | 25 % UTC | 15 % UTC | 8 % UTC | 0.68 µM | 87 % control | 75 % control |
| 1757559: mixed MOE/cEt gapmer TTGGTGAATCTTTATTAA, sugar eeeekddddddddkeeee, linkages soossssssssssooss (eT*eTeGeG*kT*dG*dA*dA*dT*d[5mC]*dT*dT*dT*kAeTeT*eA*eA) [compound 1757559] | 90 % UTC | 80 % UTC | 89 % UTC | 87 % UTC | 81 % UTC | 89 % UTC | 60 % UTC | 42 % UTC | 39 % UTC | 25 % UTC | 3.11 µM | 94 % control | 69 % control |
| 1757586 (eT*eTeGeGkT*dG*dA*dA*dT*d[5mC]*dT*dT*dT*dA*dT*kTkAeA*eA*e[5mC]; antisense) [Compound 1757586] | 202 % UTC | 246 % UTC | 52 % UTC | 157 % UTC | 129 % UTC | 34 % UTC | 27 % UTC | 20 % UTC | 19 % UTC |  | 0.5 µM | 88 % control | 83 % control |
